Reference: the supplement of paper PMC10307832

What was measured:
Test in all cases: relative viability (nuclei count vs DMSO), 5 days (fraction); higher = more cells survive
[1] = tested on: NCI-H2347
How it was run: (§1)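 Relative viability divides the nuclei count in treated wells by that in vehicle wells. Lung cancer cell lines were seeded in 1536-well plates, dosed by pin tool the next day, and fixed and stained after 5 days in one step with final 0.05% Triton X-100, 1% formaldehyde and 1 ug/ml Hoechst. Dosing was a single drug or a fixed anchor-drug dose plus five library-drug doses (not always all listed) in √10 steps, and values are medians of duplicate plates imaged at 4×.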

[2] = tested on: NCI-H650
How it was run: as §1

[3] = tested on: NCI-H2009
How it was run: as §1

[4] = tested on: HCC-44
How it was run: as §1

[5] = tested on: NCI-H727
How it was run: as §1

[6] = tested on: NCI-H2170
How it was run: as §1

[7] = tested on: NCI-H520
How it was run: as §1

[8] = tested on: SW 1573
How it was run: as §1

[9] = tested on: NCI-H1793
How it was run: as §1

[10] = tested on: NCI-H23
How it was run: as §1

[11] = tested on: NCI-H1437
How it was run: as §1

[12] = tested on: LOU-NH91
How it was run: as §1

[13] = tested on: ChaGo-K-1
How it was run: as §1

[14] = tested on: NCI-H2126
How it was run: as §1

[15] = tested on: EPLC-272H
How it was run: as §1

[16] = tested on: NCI-H460
How it was run: as §1

[17] = tested on: NCI-H2023
How it was run: as §1

[18] = tested on: NCI-H2405
How it was run: as §1

[19] = tested on: NCI-H647
How it was run: as §1

[20] = tested on: NCI-H441
How it was run: as §1

[21] = tested on: EMC-BAC-2
How it was run: as §1

[22] = tested on: LCLC-103H
How it was run: as §1

[23] = tested on: HOP-62
How it was run: as §1

SMILES: O=C(O)CCCCC(CCSCc1ccccc1)SCc1ccccc1 (centres undefined) [CPI-613] + CS(=O)(=O)N1CCN(Cc2cc3nc(-c4cccc5[nH]ncc45)nc(N4CCOCC4)c3s2)CC1 [Pictilisib] (partner 1 µM)
- relative viability ([1]; first compound 5 µM): 0.524
- relative viability ([1]; first compound 15.81 µM): 0.397
- relative viability ([1]; first compound 50 µM): 0.705
- relative viability ([1]; first compound 158.11 µM): 0.144
- relative viability ([1]; first compound 500 µM): 0.171
- relative viability ([2]; first compound 5 µM): 0.805
- relative viability ([2]; first compound 15.81 µM): 0.861
- relative viability ([2]; first compound 50 µM): 0.855
- relative viability ([2]; first compound 158.11 µM): 0.742
- relative viability ([2]; first compound 500 µM): 0.736
- relative viability ([3]; first compound 5 µM): 0.855
- relative viability ([3]; first compound 15.81 µM): 0.675
- relative viability ([3]; first compound 50 µM): 0.722
- relative viability ([3]; first compound 158.11 µM): 0.0928
- relative viability ([3]; first compound 500 µM): 0.0311
- relative viability ([4]; first compound 5 µM): 0.546
- relative viability ([4]; first compound 15.81 µM): 0.611
- relative viability ([4]; first compound 50 µM): 0.589
- relative viability ([4]; first compound 158.11 µM): 0.469
- relative viability ([4]; first compound 500 µM): 0.0534
- relative viability ([5]; first compound 5 µM): 0.359
- relative viability ([5]; first compound 15.81 µM): 0.348
- relative viability ([5]; first compound 50 µM): 0.348
- relative viability ([5]; first compound 158.11 µM): 0.33
- relative viability ([5]; first compound 500 µM): 0.0223
- relative viability ([6]; first compound 5 µM): 0.293
- relative viability ([6]; first compound 15.81 µM): 0.307
- relative viability ([6]; first compound 50 µM): 0.256
- relative viability ([6]; first compound 158.11 µM): 0.293
- relative viability ([6]; first compound 500 µM): 0.0903
- relative viability ([7]; first compound 5 µM): 0.271
- relative viability ([7]; first compound 15.81 µM): 0.279
- relative viability ([7]; first compound 50 µM): 0.286
- relative viability ([7]; first compound 158.11 µM): 0.172
- relative viability ([7]; first compound 500 µM): 0.134
- relative viability ([8]; first compound 5 µM): 0.532
- relative viability ([8]; first compound 15.81 µM): 0.452
- relative viability ([8]; first compound 50 µM): 0.554
- relative viability ([8]; first compound 158.11 µM): 0.46
- relative viability ([8]; first compound 500 µM): 0.481
- relative viability ([9]; first compound 5 µM): 0.248
- relative viability ([9]; first compound 50 µM): 0.266
- relative viability ([9]; first compound 158.11 µM): 0.205
- relative viability ([9]; first compound 500 µM): 0.0326
- relative viability ([10]; first compound 5 µM): 0.478
- relative viability ([10]; first compound 15.81 µM): 0.455
- relative viability ([10]; first compound 50 µM): 0.457
- relative viability ([10]; first compound 158.11 µM): 0.153
- relative viability ([10]; first compound 500 µM): 0.009
- relative viability ([11]; first compound 5 µM): 0.433
- relative viability ([11]; first compound 15.81 µM): 0.286
- relative viability ([11]; first compound 50 µM): 0.435
- relative viability ([11]; first compound 158.11 µM): 0.181
- relative viability ([11]; first compound 500 µM): 0.0176
- relative viability ([12]; first compound 5 µM): 0.499
- relative viability ([12]; first compound 15.81 µM): 0.519
- relative viability ([12]; first compound 50 µM): 0.541
- relative viability ([12]; first compound 158.11 µM): 0.532
- relative viability ([12]; first compound 500 µM): 0.511
- relative viability ([13]; first compound 5 µM): 0.519
- relative viability ([13]; first compound 15.81 µM): 0.663
- relative viability ([13]; first compound 50 µM): 0.707
- relative viability ([13]; first compound 158.11 µM): 0.612
- relative viability ([13]; first compound 500 µM): 0.33
- relative viability ([14]; first compound 5 µM): 0.539
- relative viability ([14]; first compound 15.81 µM): 0.457
- relative viability ([14]; first compound 50 µM): 0.499
- relative viability ([14]; first compound 158.11 µM): 0.395
- relative viability ([14]; first compound 500 µM): 0.393
- relative viability ([15]; first compound 5 µM): 0.251
- relative viability ([15]; first compound 15.81 µM): 0.28
- relative viability ([15]; first compound 50 µM): 0.369
- relative viability ([15]; first compound 158.11 µM): 0.246
- relative viability ([15]; first compound 500 µM): 0.339
- relative viability ([16]; first compound 5 µM): 0.353
- relative viability ([16]; first compound 15.81 µM): 0.315
- relative viability ([16]; first compound 50 µM): 0.347
- relative viability ([16]; first compound 158.11 µM): 0.419
- relative viability ([16]; first compound 500 µM): 0.342
- relative viability ([17]; first compound 5 µM): 0.233
- relative viability ([17]; first compound 15.81 µM): 0.218
- relative viability ([17]; first compound 50 µM): 0.231
- relative viability ([17]; first compound 158.11 µM): 0.0548
- relative viability ([17]; first compound 500 µM): 0.0183
- relative viability ([18]; first compound 5 µM): 0.493
- relative viability ([18]; first compound 15.81 µM): 0.331
- relative viability ([18]; first compound 50 µM): 0.425
- relative viability ([18]; first compound 158.11 µM): 0.388
- relative viability ([18]; first compound 500 µM): 0.421
- relative viability ([19]; first compound 5 µM): 0.58
- relative viability ([19]; first compound 15.81 µM): 0.315
- relative viability ([19]; first compound 50 µM): 0.384
- relative viability ([19]; first compound 158.11 µM): 0.424
- relative viability ([19]; first compound 500 µM): 0.412
- relative viability ([20]; first compound 5 µM): 0.498
- relative viability ([20]; first compound 15.81 µM): 0.468
- relative viability ([20]; first compound 50 µM): 0.417
- relative viability ([20]; first compound 158.11 µM): 0.147
- relative viability ([20]; first compound 500 µM): 0.0254
- relative viability ([21]; first compound 5 µM): 0.549
- relative viability ([21]; first compound 15.81 µM): 0.483
- relative viability ([21]; first compound 50 µM): 0.556
- relative viability ([21]; first compound 158.11 µM): 0.556
- relative viability ([21]; first compound 500 µM): 0.133
- relative viability ([22]; first compound 5 µM): 0.55
- relative viability ([22]; first compound 15.81 µM): 0.578
- relative viability ([22]; first compound 50 µM): 0.581
- relative viability ([22]; first compound 158.11 µM): 0.539
- relative viability ([22]; first compound 500 µM): 0.653
- relative viability ([23]; first compound 5 µM): 0.526
- relative viability ([23]; first compound 15.81 µM): 0.7
- relative viability ([23]; first compound 50 µM): 0.704
- relative viability ([23]; first compound 158.11 µM): 0.496
- relative viability ([23]; first compound 500 µM): 0.0332
